Results reported in US20240018136A1, “CDK Inhibitors And Their Use As Pharmaceuticals” (Prelude Therapeutics, Incorporated, priority 2022, published 2024).

Experiments:
CDK2/Cyclin E2 = CDK2/Cyclin E2 (Homo sapiens, UniProt P24941); experiment: CDK2/CyclinE2 enzymatic activity assay (TR-FRET); assay type: biochemical; details: ATP 1 mM final, read-out: CDK2_E1 IC50
Procedure: CDK2/CyclinE2 Enzymatic Activity Assay
(§1) The inhibitory activity of compounds was evaluated in vitro using TR-FRET assay with white 384-well low volume microplate (Greiner Bio-One). CDK2/Cyclin E2 catalyzed phosphorylation of peptide in the presence and absence of compounds was measured and used in IC50 determination. Recombinant protein complex CDK2/Cyclin E2, expressed from insect cell, was purchased from ProQinase. Testing compounds were dissolved in DMSO at 1 mM and tested in 9-dose IC50 mode. The reaction mixture was prepared by mixing CDK2/CyclinE2 (1 nM final), ULight-4E-BP1 (50 nM final, Perkinelmer, TRF0128-D), and ATP (1 mM final) in assay buffer (20 mM of HEPES pH 7.4, 1 mM of EGTA, 0.05% BSA, 0.005% Tween 20, and 1 mM TCEP). The compound of interest in DMSO was added to each well in 3-fold serial dilution by dispenser (TECAN D300E) to make a 9.9 μL of reaction mixture. After 20 minutes preincubation at room temperature, 0.1 μL MgCl2 (10 mM final) was added to initiate the reaction. Following a 45 minute incubation at 37° C., the reaction was stopped by addition of 2 μL of quenching buffer consisting of Lance detection buffer (Perkinelmer CR97-100C), LANCE Ultra Europium-anti-P-4E-BP1 (Perkinelmer, TRF0216-D), EDTA, and incubate at room temperature for an additional 60 minutes in the dark. The reaction signal was measured by Envision multimode plate reader (PerkinElmer, 2102-0010). IC50 values were determined by fitting the data to the standard 4 parameters with Hill Slope using GraphPad Prism software.

CDK4/Cyclin D1 = biological target: T1, CDK4/Cyclin D1 (Homo sapiens, UniProt P11802); experiment: CDK4/CyclinD1 enzymatic activity assay (TR-FRET); assay type: biochemical; details: ATP 2 mM final, read-out: CDK4_D1 IC50
T1 construct: purchased ProQinase; host or cells: insect cell
T1 sequence (P11802 whole entry): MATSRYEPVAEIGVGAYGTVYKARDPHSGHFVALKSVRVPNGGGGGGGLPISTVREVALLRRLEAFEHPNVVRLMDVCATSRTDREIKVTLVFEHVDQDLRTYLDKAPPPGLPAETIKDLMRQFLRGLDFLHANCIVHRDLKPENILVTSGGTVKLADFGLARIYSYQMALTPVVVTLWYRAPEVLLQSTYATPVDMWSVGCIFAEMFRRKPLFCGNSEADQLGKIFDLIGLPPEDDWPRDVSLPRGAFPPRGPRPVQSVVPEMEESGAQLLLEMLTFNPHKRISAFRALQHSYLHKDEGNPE
T1 sequence (P24385 whole entry partner): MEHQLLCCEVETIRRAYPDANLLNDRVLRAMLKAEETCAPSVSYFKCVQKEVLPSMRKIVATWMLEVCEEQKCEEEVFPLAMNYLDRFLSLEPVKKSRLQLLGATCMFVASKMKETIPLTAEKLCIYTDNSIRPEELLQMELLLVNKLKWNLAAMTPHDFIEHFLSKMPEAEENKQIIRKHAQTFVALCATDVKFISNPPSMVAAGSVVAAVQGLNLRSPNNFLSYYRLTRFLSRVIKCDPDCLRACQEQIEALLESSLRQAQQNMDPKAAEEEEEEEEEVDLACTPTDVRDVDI
Procedure: CDK4/CyclinD1 Enzymatic Activity Assay
as §1, with “Bio-One). CDK4/Cyclin D1” for “Bio-One). CDK2/Cyclin E2”, “in IC5” for “in IC50”, “complex CDK4/Cyclin D1,” for “complex CDK2/Cyclin E2,”, “mixing CDK4/CyclinD1” for “mixing CDK2/CyclinE2”, “ULight-4E-BP1 (100” for “ULight-4E-BP1 (50”, “ATP (2” for “ATP (1”

OVCAR3 p-RB = experiment: pRB ICW assay in OVCAR3 cells; assay type: cell-based; details: Homo sapiens, OVCAR-3, incubated with compound for 2 hours
Procedure: pRB ICW Assay in OVCAR3 Cells
OVCAR3 cells were maintained in RPMI (Corning, Catalog #: 10-040-CV) supplemented with 10% v/v FBS (Gibco, Catalog #: 26140-079), 1% v/v Penicillin Streptomycin (Gibco, Catalog #15140-122.) OVCAR3 cells grown at log phase were trypsinized, counted, and resuspended in fresh medium to reach a final density of 6.7e4 cells/mL and 75 μL of culture were dispensed into a 384-well plate (Falcon, cat #353962) using Multidrop Combi dispenser (Thermo Scientific). The next day, compounds were dispensed as a 9-point, ½ log serial dilution using a Tecan digital dispenser (D300e), and cells were incubated with compound for 2 hours in a humidified incubator at 37° C. A reference compound at a final concentration of 10 μM was used as a control for maximum inhibition. Each compound was tested in duplicates in each experiment. At the end of the incubation, 25 μL of 16% paraformaldehyde (Electron Microscopy, cat #15710) was slowly added to each well and the plate was incubated at room temperature (RT) for 30 minutes to fix cells. Cells were then permeabilized by incubating with 50 μL/well of wash buffer (lx PBS with 0.1% Triton X-100) 5×5 minutes, followed by 1 hour blocking with 30 μL/well of Odyssey blocking buffer (Li-COR, cat #927-40000), all at RT. Anti-phosphor RB antibody (Cell signaling 8516S) was diluted 1:1000 in Odyssey blocking buffer and 20 μL was added to all wells and incubated overnight in 4° C. with gently rocking. The next day, cells were washed 5×5 min with 50 μL/well of wash buffer, followed with 1 hour incubation with secondary antibody and DRAQ5 diluted in Odyssey blocking buffer (1:500 dilution for secondary antibody and 1:2000 dilution for DRAQ5), 5×5 min washes, and one last wash with water. Plates were dried in 37° C. oven for 5 min and scanned using Li-COR Odyssey CLx imaging system to acquire intensities at 700 and 800 nm channels.

`C[C@@H]1CN(S(=O)(=O)c2cnn(C)c2)CC[C@@H]1Nc1ncc(C(F)(F)F)c(-c2cnc(CC(C)(C)O)s2)n1` [Example 71, 2-methyl-1-(5-(2-(((3R,4S)-3-methyl-1-((1-methyl-1H-pyrazol-4-yl)sulfonyl)piperidin-4-yl)amino)-5-(trifluoromethyl)pyrimidin-4-yl)thiazol-2-yl)propan-2-ol] was tested, and the IC50 (CDK2/Cyclin E2) was ≤ 100 nM, the IC50 (CDK4/Cyclin D1) was 100 to 1000 nM and the IC50 (OVCAR3 p-RB) was 100 to 1000 nM.
`CS(=O)(=O)N1CCC(Nc2ncc(C(F)(F)F)c(-c3cnc(CN)s3)n2)CC1` [Example 64, 4-[2-(Aminomethyl)-1,3-thiazol-5-yl]-N-(1-methylsulfonylpiperidin-4-yl)-5-(trifluoromethyl)pyrimidin-2-amine] was tested, and the IC50 (CDK2/Cyclin E2) was ≤ 100 nM, the IC50 (CDK4/Cyclin D1) was 100 to 1000 nM and the IC50 (OVCAR3 p-RB) was > 1000 nM.
In the case of `CS(=O)(=O)N1CCC(Nc2ncc(C(F)(F)F)c(-c3cnc(CO)s3)n2)CC1` [Example 24, [5-[2-[(1-methylsulfonylpiperidin-4-yl)amino]-5-(trifluoromethyl)pyrimidin-4-yl]-1,3-thiazol-2-yl]methanol], the IC50 (CDK2/Cyclin E2) is reported as ≤ 100 nM, the IC50 (CDK4/Cyclin D1) is reported as 100 to 1000 nM and the IC50 (OVCAR3 p-RB) is reported as > 1000 nM.
`CS(=O)(=O)N1CCC(Nc2ncc(C(F)(F)F)c(-c3cnc(N)s3)n2)CC1` [Example 20, 5-(2-((1-(methylsulfonyl)piperidin-4-yl)amino)-5-(trifluoromethyl)pyrimidin-4-yl)thiazol-2-amine] was tested, and the IC50 (CDK2/Cyclin E2) was ≤ 100 nM, the IC50 (CDK4/Cyclin D1) was ≤ 100 nM and the IC50 (OVCAR3 p-RB) was 100 to 1000 nM.
`CS(=O)(=O)N1CCC(Nc2ncc(C(F)(F)F)c(-c3cnc(C(F)F)s3)n2)CC1` [Example 42, 4-[2-(Difluoromethyl)-1,3-thiazol-5-yl]-N-(1-methylsulfonylpiperidin-4-yl)-5-(trifluoromethyl)pyrimidin-2-amine] was tested, and the IC50 (CDK2/Cyclin E2) was ≤ 100 nM, the IC50 (CDK4/Cyclin D1) was 100 to 1000 nM and the IC50 (OVCAR3 p-RB) was > 1000 nM.
In the case of `CCNc1ncc(-c2nc(NC3CCN(S(C)(=O)=O)CC3)ncc2C(F)(F)F)s1` [Example 32, N-ethyl-5-[2-[(1-methylsulfonylpiperidin-4-yl)amino]-5-(trifluoromethyl)pyrimidin-4-yl]-1,3-thiazol-2-amine], the IC50 (CDK2/Cyclin E2) is reported as ≤ 100 nM, the IC50 (CDK4/Cyclin D1) is reported as ≤ 100 nM and the IC50 (OVCAR3 p-RB) is reported as 100 to 1000 nM.
In the case of `CNCc1ccc(-c2ncc(-c3nc(NC4CCN(S(C)(=O)=O)CC4)ncc3C(F)(F)F)s2)c(C)c1` [Example 13, 4-[2-[2-Methyl-4-(methylaminomethyl)phenyl]-1,3-thiazol-5-yl]-N-(1-methylsulfonylpiperidin-4-yl)-5-(trifluoromethyl)pyrimidin-2-amine], the IC50 (CDK2/Cyclin E2) is reported as ≤ 100 nM, the IC50 (CDK4/Cyclin D1) is reported as ≤ 100 nM and the IC50 (OVCAR3 p-RB) is reported as 100 to 1000 nM.
In the case of `COCc1ncc(-c2nc(NC3CCN(S(C)(=O)=O)CC3)ncc2C(F)(F)F)s1` [Example 53, 4-[2-(Methoxymethyl)-1,3-thiazol-5-yl]-N-(1-methylsulfonylpiperidin-4-yl)-5-(trifluoromethyl)pyrimidin-2-amine], the IC50 (CDK2/Cyclin E2) is reported as ≤ 100 nM and the IC50 (CDK4/Cyclin D1) is reported as 100 to 1000 nM.
`CCOC(=O)Nc1ncc(-c2nc(NC3CCN(S(C)(=O)=O)CC3)ncc2C(F)(F)F)s1` [Example 55, Ethyl N-[5-[2-[(1-methylsulfonylpiperidin-4-yl)amino]-5-(trifluoromethyl)pyrimidin-4-yl]-1,3-thiazol-2-yl]carbamate] was tested, and the IC50 (CDK2/Cyclin E2) was 100 to 1000 nM and the IC50 (CDK4/Cyclin D1) was > 1000 nM.
`Cc1c(-c2ncc(-c3nc(NC4CCN(S(C)(=O)=O)CC4)ncc3C(F)(F)F)s2)cnn1CCO` [Example 18, 2-[5-methyl-4-[5-[2-[(1-methylsulfonylpiperidin-4-yl)amino]-5-(trifluoromethyl)pyrimidin-4-yl]-1,3-thiazol-2-yl]pyrazol-1-yl]ethanol] was tested, and the IC50 (CDK2/Cyclin E2) was ≤ 100 nM and the IC50 (CDK4/Cyclin D1) was 100 to 1000 nM.
With `Cc1nc(C)c(-c2nc(NC3CCN(S(C)(=O)=O)CC3)ncc2F)s1` [Example 16, 4-(2,4-dimethylthiazol-5-yl)-5-fluoro-N-(1-(methylsulfonyl)piperidin-4-yl)pyrimidin-2-amine] the IC50 (CDK2/Cyclin E2) was 100 to 1000 nM and the IC50 (CDK4/Cyclin D1) was > 1000 nM.
`Cc1ncc(-c2nc(NC3CCN(S(C)(=O)=O)CC3)ncc2C(F)(F)F)o1` [Example 66, 4-(2-methyl-1,3-oxazol-5-yl)-N-(1-methylsulfonylpiperidin-4-yl)-5-(trifluoromethyl)pyrimidin-2-amine] was tested, and the IC50 (CDK2/Cyclin E2) was 100 to 1000 nM and the IC50 (CDK4/Cyclin D1) was > 1000 nM.
In the case of `COc1ncc(-c2nc(NC3CCN(S(C)(=O)=O)CC3)ncc2C(F)F)s1` [Example 50, 5-(difluoromethyl)-4-(2-methoxy-1,3-thiazol-5-yl)-N-(1-methylsulfonyl-piperidin-4-yl)pyrimidin-2-amine], the IC50 (CDK2/Cyclin E2) is reported as ≤ 100 nM and the IC50 (CDK4/Cyclin D1) is reported as 100 to 1000 nM.
In the case of `CC(C)NC(=O)Nc1ncc(-c2nc(NC3CCN(S(C)(=O)=O)CC3)ncc2C(F)(F)F)s1` [Example 56, 1-[5-[2-[(1-Methylsulfonylpiperidin-4-yl)amino]-5-(trifluoromethyl)pyrimidin-4-yl]-1,3-thiazol-2-yl]-3-propan-2-ylurea], the IC50 (CDK2/Cyclin E2) is reported as 100 to 1000 nM and the IC50 (CDK4/Cyclin D1) is reported as > 1000 nM.
`Cc1ncc(-c2nc(NC3CCN(S(C)(=O)=O)CC3)ncc2C(F)F)s1` [Example 43, 5-(Difluoromethyl)-N-(1-methylsulfonylpiperidin-4-yl)-4-(2-methyl-1,3-thiazol-5-yl)pyrimidin-2-amine] was tested, and the IC50 (CDK2/Cyclin E2) was ≤ 100 nM and the IC50 (CDK4/Cyclin D1) was 100 to 1000 nM.
In the case of `CS(=O)(=O)N1CCC(Nc2ncc(C(F)(F)F)c(-c3cnc(C4CCCC4)s3)n2)CC1` [Example 5, 4-(2-Cyclopentyl-1,3-thiazol-5-yl)-N-(1-methylsulfonylpiperidin-4-yl)-5-(trifluoromethyl)pyrimidin-2-amine], the IC50 (CDK2/Cyclin E2) is reported as ≤ 100 nM and the IC50 (CDK4/Cyclin D1) is reported as ≤ 100 nM.
`CCOc1ncc(-c2nc(NC3CCN(S(C)(=O)=O)CC3)ncc2C(F)F)s1` [Example 49, 5-(Difluoromethyl)-4-(2-ethoxy-1,3-thiazol-5-yl)-N-(1-methylsulfonylpiperidin-4-yl)pyrimidin-2-amine] showed an IC50 (CDK2/Cyclin E2) of 100 to 1000 nM and an IC50 (CDK4/Cyclin D1) of 100 to 1000 nM.
With `CS(=O)(=O)N1CCC(Nc2ncc(C(F)(F)F)c(-c3cnc(-c4ccccc4CO)s3)n2)CC1` [Example 23, [2-[5-[2-[(1-Methylsulfonylpiperidin-4-yl)amino]-5-(trifluoromethyl)pyrimidin-4-yl]-1,3-thiazol-2-yl]phenyl]methanol] the IC50 (CDK2/Cyclin E2) was ≤ 100 nM.
For `CC(C)Oc1ncc(-c2nc(NC3CCN(S(C)(=O)=O)CC3)ncc2C(F)F)s1` [Example 51, 5-(Difluoromethyl)-N-(1-methylsulfonylpiperidin-4-yl)-4-(2-propan-2-yloxy-1,3-thiazol-5-yl)pyrimidin-2-amine], the IC50 (CDK2/Cyclin E2) was ≤ 100 nM and the IC50 (CDK4/Cyclin D1) was ≤ 100 nM.
